From PubChem BioAssay (NCI)
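Cells were grown in 96-well plates and exposed to each compound for 48 hours at five concentrations; endpoints were interpolated linearly between bracketing concentrations, or set to the highest concentration if not reached. Here, GI50 denotes the concentration required for 50% inhibition of growth. TGI is the concentration that stops growth completely.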

How the values were obtained:
Assay in all cases: NCI anticancer screen, dose series, 48 h
[1] = system: DU-145 prostate
[2] = system: OVCAR-5 ovarian
[3] = system: SF-295 CNS
[4] = system: PC-3 prostate
[5] = system: T-47D breast
[6] = system: EKVX NSCLC
[7] = system: K-562 leukemia
[8] = system: SK-MEL-2 melanoma

SMILES | GI50 [1] [µM] | TGI [1] [µM] | GI50 [2] [µM] | TGI [2] [µM] | GI50 [3] [µM] | TGI [3] [µM] | GI50 [4] [µM] | TGI [4] [µM] | GI50 [5] [µM] | TGI [5] [µM] | GI50 [6] [µM] | TGI [6] [µM] | GI50 [7] [µM] | TGI [7] [µM] | GI50 [8] [µM] | TGI [8] [µM]
C=CCc1c(O)c(C(=O)/C=C/c2ccc(Cl)cc2)c(OC)c2ccoc12 | 3.85 | 18.1 | 2.8 | 9.71 | 2.77 | 9.56 | 3.81 | 15.6 | 3.29 | 19 | 7.23 | 21.5 | 3.25 | > 100 | 3.97 | 14.7
Nc1nc2cc(Cl)ccc2n1N | – | > 100 | – | > 100 | – | > 100 | – | > 100 | – | > 100 | – | > 100 | – | > 100 | – | –
Cc1ccc2ccccc2c1CSc1nc(N)nc2c1ncn2CC(C)C | – | > 100 | – | > 100 | – | > 100 | – | > 89.9 | – | > 47.8 | – | > 100 | – | > 100 | – | > 73.9
Oc1c(C(Nc2ccccn2)c2ccccc2)ccc2cccnc12 (configuration not stated) | – | > 100 | – | > 100 | – | > 30.3 | – | 30.3 | – | > 31.6 | – | 28.6 | – | 24.9 | – | > 28.4
COC(=O)CC[C@@H](C)[C@H]1CC[C@H]2[C@@H]3CC[C@@H]4C[C@H](O)CC[C@]4(C)[C@H]3CC[C@]12C | – | 32.6 | – | 35.6 | – | 33.9 | – | 32.2 | – | 36 | – | 35.6 | – | 65.7 | – | 34.2
c1ccc2c(N=NSc3ncnc4nc[nH]c34)c3ccccc3nc2c1 | 1.4 | 6.63 | 1.89 | 6.3 | 1.13 | 9.63 | 1.63 | 8.04 | 1.44 | 11 | 2.61 | 12.8 | 1.58 | 11.1 | 1.64 | 3.61
CC(NNC(=S)N1CCN(c2ccccn2)CC1)c1nccc2ccccc12 (configuration not stated) | – | 13.8 | – | 14.2 | – | 11.9 | – | 14.9 | – | 16.9 | – | 11.4 | – | 14.2 | – | 18.3
O=C(NC1CCC[C@H]1OC(=O)c1ccccc1)c1ccccc1 (some centres not stated) | – | – | – | > 100 | – | > 100 | – | – | – | – | – | > 100 | – | > 100 | – | > 100
Cn1nc(C(F)(F)F)cc1-c1cc(Cl)c(OCc2ccc(Cl)cc2)c(-c2ccc(Cl)c(C(F)(F)F)c2)c1O | 1.76 | 6.87 | 1.72 | 7.4 | 0.997 | 2.55 | 0.709 | 5.09 | 0.435 | 2.96 | 1.21 | 5.41 | 0.312 | 5.08 | 0.919 | 2.34
COc1nn(C)cc1Nc1nccc(-c2c[nH]c3c(NC(=O)[C@@H](C)N4CCN(C)CC4)cccc23)n1 | 62.8 | > 100 | 42.5 | > 100 | 28 | 99.4 | 51.2 | > 100 | – | – | 47 | > 100 | 29.2 | > 100 | 25 | 74.5
CCC[CH2][Sn]1([CH2]CCC)[O]C(=O)c2cccc([N+](=O)[O-])c2C(=O)[O]1 | 0.795 | 2.05 | 1.11 | 2.49 | 1.55 | 2.95 | 1.06 | 2.45 | 0.0604 | 0.27 | – | – | – | – | 0.286 | 0.825
CC1=CC(C)=N/C(=N/S(=O)(=O)c2cc(C)c(Cl)cc2SCc2ccccc2)NN1 | > 100 | > 100 | > 100 | > 100 | > 100 | > 100 | > 100 | > 100 | > 100 | > 100 | 98.6 | > 100 | > 100 | > 100 | > 100 | > 100
Clc1ccc2c(NC3CCC(N4CCCCC4)CC3)ccnc2c1 (configuration not stated) | – | > 100 | – | > 100 | – | 36.8 | – | > 100 | – | > 100 | – | > 100 | – | 62.1 | – | 33.9
CCOC(=O)C1=C(Nc2ccc(OC)cc2)C(N)=NC1=N | 3.49 | > 100 | 5.09 | > 100 | 2.71 | 8.32 | 3.26 | > 100 | > 100 | > 100 | – | – | 3.02 | > 100 | 8.03 | > 100
Cc1cc(OCc2ccc(C(F)(F)F)cc2)c2c(c1)C(=O)C=C(NCCN1CCCC1)C2=O | 6.15 | 18.6 | 3.39 | 12.3 | 1.88 | 4 | 5.36 | 19.5 | – | – | – | – | 2.41 | 6.18 | 1.99 | 4.08
COc1ccc(C(=O)/C=C/c2ccc(OCc3cccc(C(F)(F)F)c3)c(OC)c2)cc1OC | 72.6 | > 1000 | 292 | > 1000 | 70.3 | > 1000 | 61.4 | > 1000 | 32.1 | > 1000 | 45.8 | > 1000 | – | – | 187 | > 1000
CCN1CCN(c2ccc(NC(=O)Nc3nc4ccc(-c5ccccc5OC)cc4s3)cc2)CC1 | 1.75 | 3.26 | 1.8 | 3.37 | 1.68 | 3.09 | 1.79 | 3.47 | 1.58 | 3.61 | 1.51 | 3.12 | – | – | 1.94 | 3.61
CN(C(=O)C(C)(C)C)c1ccccc1I(=O)=O | > 100 | > 100 | > 100 | > 100 | > 100 | > 100 | – | – | 38.3 | > 100 | > 100 | > 100 | 14.1 | 35.5 | > 100 | > 100
NC1CC(=O)c2c(-c3cccs3)sc(-c3cccs3)c21 (configuration not stated) | 14.4 | 32.9 | – | – | 85.4 | > 100 | 30.8 | > 100 | 10.7 | 36.5 | 51.3 | > 100 | 25 | > 100 | – | –
